For data set [1] the following is noted: 101.33 kPa, Liquid, Vibrating tube method.
Data set [2] in a line: refractive index (Na D-line) (dimensionless). Particulars: 101.33 kPa, Liquid, Standard Abbe refractometry.

Numbers after ± are expanded uncertainties.

Data on two compounds can be found in the NIST ThermoML archive (doi:10.1016/j.fluid.2013.03.002).

By mass density is commonly meant mass per unit of volume. A word on the refractive index: it is the speed of light in vacuum divided by its phase velocity in the sample. For the compound `CCCOCC(C)OCC(C)O` (stereo not drawn) [1-(1-methyl-2-propoxyethoxy)-2-propanol], the results for the mass density in data set [1] (293.15 K) and in data set [1] (298.15 K) were 920.14 ± 1 kg/m3 and 915.65 ± 1 kg/m3, respectively. The refractive index in data set [2] (293.15 K) is 1.4225 ± 0.0005; in data set [2] (298.15 K), 1.4214 ± 0.0005.

Regarding `CCCCCCCCCCCCCCCC` [hexadecane], the mass density in data set [1] (293.15 K) turned out to be 773.5 ± 1 kg/m3; in data set [1] (298.15 K), 769.93 ± 1 kg/m3. The refractive index is reported as 1.4342 ± 0.0006 in data set [2] (293.15 K) and 1.4326 ± 0.0006 in data set [2] (298.15 K).
